“And” between values parts separate entries of the source, which are not always exact repeats. Equal values may be shown once.
What was measured:
ischemic hindlimbs = assay: hindlimb ischemia model, laser Doppler perfusion imaging of limb blood perfusion; assay type: in vivo, C57BL/6 wild-type mice; conditions: for Ischemic/Non-ischemic Perfusion Ratio (%) 7 days: 7 days after surgery, 50 μl sustained-release alginate gel formulation, 10 μM peptide (Bolus: bolus formulation of 29-mer), single intramuscular injection to gracilis muscle; for Ischemic/Non-ischemic Perfusion Ratio (%) 21 days: 21 days after surgery; for Ischemic/Non-ischemic Perfusion Ratio (%) 21 days / Ischemic/Non-ischemic Perfusion Ratio (%) 28 days: sustained-release formulation (Bolus: bolus 29-mer), single intramuscular injection; for Ischemic/Non-ischemic Perfusion Ratio (%) 28 days: 28 days (four weeks) after surgery; for Ischemic/Non-ischemic Perfusion Ratio (%) Pre OP: before surgery (baseline); for Ischemic/Non-ischemic Perfusion Ratio (%) Pre OP / Ischemic/Non-ischemic Perfusion Ratio (%) Post OP: LDPI; for Ischemic/Non-ischemic Perfusion Ratio (%) Post OP: immediately after surgery
Protocol: 6-week-old female C57BL/6 wild-type mice were anesthetized by an intraperitoneal injection of a mixture of zoletil (6 mg/kg) and xylazine (3 mg/kg). Hair was removed from the hindquarter with a depilating cream. To establish hindlimb ischemia, unilateral external iliac and femoral arteries and veins were ligated, cut, and excised. After surgery, the mice were randomly assigned to several experimental groups (n=6, each group) and treated as follows. In the blank control group, the mice were treated with 50 μl of blank alginate gel, whereas in the bolus control group, the mice received the bolus formulation containing 29-mer. In the PEDF peptide/alginate gel treatment groups, the mice received 50 μl of the sustained-release formulation, which comprised either 29-mer, 24-mer, or 20-mer. Additionally, in a PEDF 18-mer control group, mice were treated with a sustained-release formulation containing a PEDF 18-mer peptide. Treatments were applied by way of a single intramuscular injection to the gracilis muscle immediately after femoral artery and vein excision operation. The incision was closed after the wound was irrigated with sterile saline.
A laser Doppler perfusion imaging (LDPI) analyzer (Moor Instruments, USA) was used to quantify hindlimb blood perfusion before surgery (pre OP), immediately after surgery (post OP), and over time after surgery. To minimize vasoconstriction by anesthetic heat loss, animals were kept on a heating plate at 37° C. for 5 min before measurement. Representative LDPI images illustrating the blood perfusion of ischemic hindlimbs over a time period of 4 weeks were provided in FIG. 2 in which dark blue color represents low blood flow. Blood perfusion is expressed as LDPI index representing the ratio of operated (ischemic) versus non-operated (non-ischemic) limb blood flow of the same mouse, and the results were summarized in FIG. 3 and Table 1 (n 6).

tendo Achilles = tendo Achilles injury model, histology and collagen in regenerated area; assay type: in vivo, Sprague-Dawley rats; conditions: three weeks after tendon injury; for Collagen in Regenerated Area (%): 150 μl sustained-release formulation (Bolus: bolus 29-mer) subcutaneously near tendon lesion
Protocol: De-paraffinized tendon tissue sections were stained using Masson's Trichrome according to the manufacturer's instructions. For semi-quantitative analysis of collagen area, 10 fields from each slide were randomly selected under a light microscope, and the repairing area per intact tendon area of the cross section (mm^2/mm^2) was measured using the Image-Pro Plus 4.5.1 system.
To investigate the effects of the present PEDF peptides on tendon regeneration, a rat model with tendon injury was established as follows. Adult 10-week-old male Sprague-Dawley rats (total n=50; initial body weight=312±11 g) were anesthetized by an intraperitoneal injection of a xylazine (10 mg/kg). Then, the left tendo Achilles injury was created by full-thickness insertion of an 18-gauge needle through tendo Achilles 1 cm proximal to its insertion into the calcaneum. This created a horizontal (transaction) wound which was flanked by intact tendon tissue on both sides to prevent the retraction of severed ends.
The rats were randomly assigned (n=10/group) to five experimental groups and treated as follows. In the blank control group, the mice were treated with 150 μl of blank alginate gel. For the bolus control group, 150 μl of the bolus formulation (29-mer) was administered. In the treatments groups, the mice received 150 μl of the sustained-release formulation (29-mer, 24-mer, or 20-mer). Treatments were injected subcutaneously near tendon lesion immediately after the injury, and the incision was closed after the wound was irrigated with sterile saline.
Three weeks after tendon injury, histologic analysis was performed to observe the healing of the tendon. As could be seen in the upper panel of FIG. 10, in animals treated with blank control, a broad band of disorganized fibrous scar was formed between the two cut ends, and the pink stained collagen bundle was minimal in the scar tissue. […] Also, the fibrous tissue in the scar was more organized and in parallel direction in the 29-mer treatment group.
Quantitative analysis was also performed to assess the percentage of collagen (%) in the regenerated area, and results were summarized in Table 7.

tendon stem cells (TSCs) = assay: TSCs proliferation assay (BrdU labeling) in vitro; assay type: cell-based, New Zealand White rabbits; conditions: TSCs passage 4; 50 nM peptide, 5% FBS, 24 hours; BrdU pulse-labeling
Protocol: New Zealand White rabbits (6-8 months old, 3.0-4.0 kg) were used in this study. Achilles tendons were removed from the rabbits by cutting through their bony attachments. The tendon sheath was stripped away and the core portion of the tendons was minced into small fragments. Each 100 mg of fragment was then digested in a solution containing 3 mg/mL of type I collagenase and 4 mg/mL of dispase in 1 ml Dulbecco's Modified Eagle Medium (DMEM-high glucose) at 37° C. for 2 hours. The resultant cell suspension was centrifuged at 1,000 rpm for 15 minutes to obtain a cell pellet which was then resuspended in a growth medium consisting of DMEM supplemented with 10% heat inactivated fetal bovine serum (FBS), 100 μM 2-mercaptoethanol, and 100 U/ml penicillin and 100 μg/ml streptomycin. For passage, near-confluent cells were harvested with 0.25% trypsin and then 1×10^5 subcultured cells were further cultured in medium.
The TSCs at passage 4 were seeded at gelatin-coated slide in a 6-well plate at a density of 2×10^5 cells per well and cultured in growth medium (DMEM+10% FBS) for 24 hours before being replaced by a basal growth medium with 5% FBS only (control group) or with 5% FBS plus an additional 50 nM of PEDF-derived peptide (i.e., 29-mer, 24-mer, 20-mer, 18-mer, Mo 29-mer, or Mo 20-mer) for 24 hours. For BrdU labeling assay, BrdU (final concentration, 10 μM) was added to the culture for 4 hours. After fixing with 4% paraformaldehyde, cells were exposed to cold methanol for 2 minutes, and then treated with 1 N HCl at RT for 1 hour before performing immunofluorescence. The phenotype of passage 4 TSC was determined by immunocytochemistry of nucleostemin and type I collagen. Almost all of expanded TSCs were nucleostemin and type I collagen-double positive cells.
It has been reported that during the tendon healing process, tendon stem cells (TSCs) would proliferate and differentiate into tenocytes. To investigate whether present PEDF peptides would induce the proliferation of TSCs in vitro, tendons stem cells were isolated and cultured as described in the “Materials and Methods” section. The purity of TSCs was confirmed by a TSC marker, nucleostemin, as well as the expression of type I collagen by TSCs; together, these analyses indicated a TSC purity of near 100% (data not shown). The proliferation of TSCs was confirmed by BrdU pulse-labeling for 2 hours. Quantitative analysis of the level of BrdU-positive cells was performed as described above, and the results were summarized in Table 8.

| Sequence | Ischemic/Non-ischemic Perfusion Ratio (%) 7 days (ischemic hindlimbs) [%] | Ischemic/Non-ischemic Perfusion Ratio (%) 21 days (ischemic hindlimbs) [%] | Ischemic/Non-ischemic Perfusion Ratio (%) 28 days (ischemic hindlimbs) | Ischemic/Non-ischemic Perfusion Ratio (%) Pre OP (ischemic hindlimbs) [%] | Ischemic/Non-ischemic Perfusion Ratio (%) Post OP (ischemic hindlimbs) [%] | Collagen in Regenerated Area (%) (tendo Achilles) | BrdU Labeling Index (%) (tendon stem cells (TSCs)) | tendon healing, histology of cut ends (tendo Achilles; sustained-release formulation, in words) |
| --- | --- | --- | --- | --- | --- | --- | --- | --- |
| SLGAEQRTESIIHRALYYDL [20-mer, synthetic peptide corresponding to residues 93-112 of human PEDF] | 43.3 ± 7.2 | 75.5 ± 5.2 | 93% and 92.7 ± 3.0 % | 98.0 ± 7.8 | 4.6 ± 0.64 | 82.01 ± 6.55 | 33.2 ± 6.6 | – |
| SLGAEQRTESIIHRALYYDLISSPDIHGT [29-mer, synthetic peptide corresponding to residues 93-121 of human PEDF] | 44.8 ± 2.0 | 101 ± 7.0 | 105% and 105 ± 4.8 % | 108.2 ± 8.8 | 7.0 ± 3.1 | 88.75 ± 1.89 | 31.8 ± 3.6 | healed with much lesser scar tissue |
| SLGAEQRTESIIHRALYYDLISSP [24-mer, synthetic peptide corresponding to residues 93-116 of human PEDF] | 53.1 ± 0.37 | 86.1 ± 5.9 | 92% and 91.8 ± 5.5 % | 91.5 ± 5.6 | 8.0 ± 0.03 | 85.75 ± 2.56 | 29.0 ± 4.6 | – |

Source: patent publication US9884012B2, “Use of PEDF-derived polypeptides for promoting muscle or tendon regeneration or arteriogenesis” (MacKay Memorial Hospital, priority 2012, dated 2018)
